Assay results taken from patent US9981959B2, “Thiazolyl and oxazolyl urea, thiourea, guanidine and cyanoguanidine compounds as TrkA kinase inhibitors” (Array BioPharma Inc., priority 2012, dated 2018).

How the values were obtained:
Assay in all cases: KinaseProfiler off-target kinase profiling
Assay type in all cases: biochemical
Conditions in all cases: 10 μM, ATP near Km
PDK1 = molecular target: T1, PDK1 (Homo sapiens, UniProt O15530)
T1 construct: purchased Millipore, Inc. (KinaseProfiler service)
Protocol: (§1) A representative compound of the invention (Example 2) was tested for off-target kinase activity at a concentration of 10 μM by Millipore, Inc. in their KinaseProfiler™ service against all the kinases available in their full kinase panel. The compound was run in duplicate at a concentration of ATP near the Km for each individual kinase according to Millipore's specifications. The results are shown in Table B. Data are reported as percent of control (POC) and are the average of the two replicates.

SRPK2 = molecular target: T2, SRPK2 (Homo sapiens, UniProt P78362)
T2 construct: purchased Millipore, Inc. (KinaseProfiler service)
Protocol: as §1

MKK4_m = molecular target: T3, MKK4_m (Mus musculus, UniProt P47809)
T3 construct: purchased Millipore, Inc. (KinaseProfiler service)
Protocol: as §1

PAK6 = molecular target: T4, PAK6 (Homo sapiens, UniProt Q9NQU5)
T4 construct: purchased Millipore, Inc. (KinaseProfiler service)
Protocol: as §1

CDK2/cyclinA = molecular target: T5, CDK2/cyclinA (Homo sapiens, UniProt P24941)
T5 construct: purchased Millipore (KinaseProfiler service)
Protocol: as §1

FGFR2 = molecular target: T6, FGFR2 (Homo sapiens, UniProt P21802)
T6 construct: purchased Millipore, Inc. (KinaseProfiler service)
Protocol: as §1

SGK1 = molecular target: T7, SGK1 (Homo sapiens, UniProt O00141, S422D)
T7 construct: purchased Millipore, Inc. (KinaseProfiler service)
Protocol: as §1

PDGFRbeta = molecular target: T8, PDGFRbeta (Homo sapiens, UniProt P09619)
T8 construct: purchased Millipore, Inc. (KinaseProfiler service)
Protocol: as §1

PKAC-alpha = molecular target: T9, PKAC-alpha (Homo sapiens, UniProt P17612)
T9 construct: purchased Millipore, Inc. (KinaseProfiler service)
Protocol: as §1

CAMK2b = molecular target: T10, CAMK2b (Homo sapiens, UniProt Q13554)
T10 construct: purchased Millipore (KinaseProfiler service)
Protocol: as §1

CAMK1 = molecular target: T11, CAMK1 (Homo sapiens, UniProt Q14012)
T11 construct: purchased Millipore (KinaseProfiler service)
Protocol: as §1

CHK1 = molecular target: T12, CHK1 (Homo sapiens, UniProt O14757)
T12 construct: purchased Millipore, Inc. (KinaseProfiler service)
Protocol: as §1

MST1 = molecular target: T13, MST1 (Homo sapiens, UniProt Q13043)
T13 construct: purchased Millipore, Inc. (KinaseProfiler service)
Protocol: as §1

GSK3alpha = molecular target: T14, GSK3alpha (Homo sapiens, UniProt P49840)
T14 construct: purchased Millipore, Inc. (KinaseProfiler service)
Protocol: as §1

AKT3 = molecular target: T15, AKT3 (Homo sapiens, UniProt Q9Y243)
T15 construct: purchased Millipore (KinaseProfiler service)
Protocol: as §1

Rsk3 = molecular target: T16, Rsk3 (Homo sapiens, UniProt Q15349)
T16 construct: purchased Millipore, Inc. (KinaseProfiler service)
Protocol: as §1

Yes = molecular target: T17, Yes (Homo sapiens, UniProt P07947)
T17 construct: purchased Millipore, Inc. (KinaseProfiler service)
Protocol: as §1

IR Activated = molecular target: T18, IR Activated (Homo sapiens, UniProt P06213)
T18 construct: purchased Millipore, Inc. (KinaseProfiler service)
Protocol: as §1

Fer = molecular target: T19, Fer (Homo sapiens, UniProt P16591)
T19 construct: purchased Millipore, Inc. (KinaseProfiler service)
Protocol: as §1

HIPK2 = molecular target: T20, HIPK2 (Homo sapiens, UniProt Q9H2X6)
T20 construct: purchased Millipore, Inc. (KinaseProfiler service)
Protocol: as §1

IRAK4 = molecular target: T21, IRAK4 (Homo sapiens, UniProt Q9NWZ3)
T21 construct: purchased Millipore, Inc. (KinaseProfiler service)
Protocol: as §1

CSK = molecular target: T22, CSK (Homo sapiens, UniProt P41240)
T22 construct: purchased Millipore, Inc. (KinaseProfiler service)
Protocol: as §1

Rsk1 = molecular target: T23, Rsk1 (Homo sapiens, UniProt Q15418)
T23 construct: purchased Millipore, Inc. (KinaseProfiler service)
Protocol: as §1

SGK3 = molecular target: T24, SGK3 (Homo sapiens, UniProt Q96BR1)
T24 construct: purchased Millipore, Inc. (KinaseProfiler service)
Protocol: as §1

EphA7 = molecular target: T25, EphA7 (Rattus norvegicus, UniProt P54759)
T25 construct: purchased Millipore, Inc. (KinaseProfiler service)
Protocol: as §1

PKCeta = molecular target: T26, PKCeta (Homo sapiens, UniProt P24723)
T26 construct: purchased Millipore, Inc. (KinaseProfiler service)
Protocol: as §1

TrkB = molecular target: T27, TrkB (Homo sapiens, UniProt Q16620)
T27 construct: purchased Millipore, Inc. (KinaseProfiler service)
Protocol: as §1

DCAMKL2 = molecular target: T28, DCAMKL2 (Homo sapiens, UniProt Q8N568)
T28 construct: purchased Millipore, Inc. (KinaseProfiler service)
Protocol: as §1

IKKalpha = molecular target: T29, IKKalpha (Homo sapiens, UniProt O15111)
T29 construct: purchased Millipore, Inc. (KinaseProfiler service)
Protocol: as §1

TAO1 = molecular target: T30, TAO1 (Homo sapiens, UniProt Q7L7X3)
T30 construct: purchased Millipore, Inc. (KinaseProfiler service)
Protocol: as §1

PAK2 = molecular target: T31, PAK2 (Homo sapiens, UniProt Q13177)
T31 construct: purchased Millipore, Inc. (KinaseProfiler service)
Protocol: as §1

MAPKAP-K3 = molecular target: T32, MAPKAP-K3 (Homo sapiens, UniProt Q16644)
T32 construct: purchased Millipore, Inc. (KinaseProfiler service)
Protocol: as §1

MINK = molecular target: T33, MINK (Homo sapiens, UniProt Q8N4C8)
T33 construct: purchased Millipore, Inc. (KinaseProfiler service)
Protocol: as §1

BrSK1 = molecular target: T34, BrSK1 (Homo sapiens, UniProt Q8TDC3)
T34 construct: purchased Millipore (KinaseProfiler service)
Protocol: as §1

Syk = molecular target: T35, Syk (Homo sapiens, UniProt P43405)
T35 construct: purchased Millipore, Inc. (KinaseProfiler service)
Protocol: as §1

p38gamma = molecular target: T36, p38gamma (Homo sapiens, UniProt P53778)
T36 construct: purchased Millipore, Inc. (KinaseProfiler service)
Protocol: as §1

JNK3 = molecular target: T37, JNK3 (Homo sapiens, UniProt P53779)
T37 construct: purchased Millipore, Inc. (KinaseProfiler service)
Protocol: as §1

MAPKAP-K2 = molecular target: T38, MAPKAP-K2 (Homo sapiens, UniProt P49137)
T38 construct: purchased Millipore, Inc. (KinaseProfiler service)
Protocol: as §1

BTK = molecular target: T39, BTK (Homo sapiens, UniProt Q06187)
T39 construct: purchased Millipore (KinaseProfiler service)
Protocol: as §1

CK1_y = system: CK1_y
Protocol: as §1

MuSK = molecular target: T40, MuSK (Homo sapiens, UniProt O15146)
T40 construct: purchased Millipore, Inc. (KinaseProfiler service)
Protocol: as §1

T3 sequence (P47809 whole entry): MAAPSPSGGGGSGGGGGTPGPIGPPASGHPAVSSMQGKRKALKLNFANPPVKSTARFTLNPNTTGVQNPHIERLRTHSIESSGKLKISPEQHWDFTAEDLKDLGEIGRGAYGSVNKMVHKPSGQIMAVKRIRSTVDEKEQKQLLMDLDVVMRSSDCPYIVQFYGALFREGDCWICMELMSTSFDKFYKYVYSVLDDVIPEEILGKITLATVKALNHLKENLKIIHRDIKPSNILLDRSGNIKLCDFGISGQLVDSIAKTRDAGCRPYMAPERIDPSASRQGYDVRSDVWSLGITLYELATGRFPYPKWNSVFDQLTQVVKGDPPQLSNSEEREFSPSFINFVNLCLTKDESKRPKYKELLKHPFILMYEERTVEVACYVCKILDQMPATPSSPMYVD
T26 sequence (P24723 whole entry): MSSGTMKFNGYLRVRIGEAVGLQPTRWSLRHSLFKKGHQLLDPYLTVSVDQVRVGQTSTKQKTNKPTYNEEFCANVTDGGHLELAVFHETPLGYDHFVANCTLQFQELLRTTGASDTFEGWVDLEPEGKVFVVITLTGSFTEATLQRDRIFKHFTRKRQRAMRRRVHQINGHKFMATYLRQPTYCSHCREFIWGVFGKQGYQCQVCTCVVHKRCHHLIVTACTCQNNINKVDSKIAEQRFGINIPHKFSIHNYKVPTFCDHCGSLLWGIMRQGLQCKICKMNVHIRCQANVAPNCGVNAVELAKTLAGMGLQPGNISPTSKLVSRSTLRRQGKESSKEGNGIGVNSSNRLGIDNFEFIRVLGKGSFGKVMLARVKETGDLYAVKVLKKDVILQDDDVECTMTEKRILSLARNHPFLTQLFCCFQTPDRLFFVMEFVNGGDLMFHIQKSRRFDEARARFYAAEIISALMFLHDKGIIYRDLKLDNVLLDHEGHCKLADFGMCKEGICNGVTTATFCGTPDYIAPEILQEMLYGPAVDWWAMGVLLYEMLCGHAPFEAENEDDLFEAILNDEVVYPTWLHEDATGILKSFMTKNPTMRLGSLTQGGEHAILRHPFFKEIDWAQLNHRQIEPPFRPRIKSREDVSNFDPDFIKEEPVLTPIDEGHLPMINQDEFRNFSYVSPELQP
T27 sequence (Q16620 32-822): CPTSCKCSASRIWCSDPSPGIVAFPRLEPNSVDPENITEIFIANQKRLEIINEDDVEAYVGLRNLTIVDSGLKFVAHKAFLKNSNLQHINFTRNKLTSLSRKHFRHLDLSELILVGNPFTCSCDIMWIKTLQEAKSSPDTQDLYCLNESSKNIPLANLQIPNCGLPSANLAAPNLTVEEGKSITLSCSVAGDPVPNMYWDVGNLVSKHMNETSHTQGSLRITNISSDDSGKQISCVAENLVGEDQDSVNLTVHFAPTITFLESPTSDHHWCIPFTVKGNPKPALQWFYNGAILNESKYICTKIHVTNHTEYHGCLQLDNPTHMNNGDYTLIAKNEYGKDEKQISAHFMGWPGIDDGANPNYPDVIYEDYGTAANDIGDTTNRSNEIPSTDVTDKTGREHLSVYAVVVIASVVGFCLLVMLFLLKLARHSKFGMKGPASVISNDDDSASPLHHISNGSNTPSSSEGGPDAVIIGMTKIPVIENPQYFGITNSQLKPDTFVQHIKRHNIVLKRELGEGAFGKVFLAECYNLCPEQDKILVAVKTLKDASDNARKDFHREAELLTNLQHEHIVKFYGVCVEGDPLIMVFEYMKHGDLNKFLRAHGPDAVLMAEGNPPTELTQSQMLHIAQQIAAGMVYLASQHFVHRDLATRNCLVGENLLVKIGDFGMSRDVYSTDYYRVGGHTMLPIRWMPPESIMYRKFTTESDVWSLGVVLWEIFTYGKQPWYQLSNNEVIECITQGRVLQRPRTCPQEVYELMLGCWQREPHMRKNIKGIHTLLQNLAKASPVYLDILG
T21 sequence (Q9NWZ3 whole entry): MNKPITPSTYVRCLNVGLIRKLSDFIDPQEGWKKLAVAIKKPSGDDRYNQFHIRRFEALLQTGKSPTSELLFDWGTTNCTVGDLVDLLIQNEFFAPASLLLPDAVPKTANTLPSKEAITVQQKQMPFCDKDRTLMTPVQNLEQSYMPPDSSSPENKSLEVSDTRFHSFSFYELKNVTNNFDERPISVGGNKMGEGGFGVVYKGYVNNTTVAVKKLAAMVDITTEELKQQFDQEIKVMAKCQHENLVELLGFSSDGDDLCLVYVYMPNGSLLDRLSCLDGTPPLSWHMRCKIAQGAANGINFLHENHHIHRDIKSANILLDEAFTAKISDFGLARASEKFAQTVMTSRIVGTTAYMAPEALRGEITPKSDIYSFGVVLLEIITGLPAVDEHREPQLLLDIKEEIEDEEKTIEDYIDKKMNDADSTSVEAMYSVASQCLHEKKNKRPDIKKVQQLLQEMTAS
T18 sequence (P06213 1005-1310 limits assumed): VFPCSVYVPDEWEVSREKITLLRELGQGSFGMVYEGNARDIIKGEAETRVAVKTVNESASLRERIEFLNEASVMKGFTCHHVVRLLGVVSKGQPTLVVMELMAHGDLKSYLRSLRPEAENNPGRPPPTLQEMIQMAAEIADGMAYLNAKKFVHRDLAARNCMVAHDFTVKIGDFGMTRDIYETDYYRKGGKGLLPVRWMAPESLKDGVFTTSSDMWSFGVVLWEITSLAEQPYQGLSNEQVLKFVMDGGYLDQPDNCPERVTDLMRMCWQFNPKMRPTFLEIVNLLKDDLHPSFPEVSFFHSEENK
T15 sequence (Q9Y243 whole entry): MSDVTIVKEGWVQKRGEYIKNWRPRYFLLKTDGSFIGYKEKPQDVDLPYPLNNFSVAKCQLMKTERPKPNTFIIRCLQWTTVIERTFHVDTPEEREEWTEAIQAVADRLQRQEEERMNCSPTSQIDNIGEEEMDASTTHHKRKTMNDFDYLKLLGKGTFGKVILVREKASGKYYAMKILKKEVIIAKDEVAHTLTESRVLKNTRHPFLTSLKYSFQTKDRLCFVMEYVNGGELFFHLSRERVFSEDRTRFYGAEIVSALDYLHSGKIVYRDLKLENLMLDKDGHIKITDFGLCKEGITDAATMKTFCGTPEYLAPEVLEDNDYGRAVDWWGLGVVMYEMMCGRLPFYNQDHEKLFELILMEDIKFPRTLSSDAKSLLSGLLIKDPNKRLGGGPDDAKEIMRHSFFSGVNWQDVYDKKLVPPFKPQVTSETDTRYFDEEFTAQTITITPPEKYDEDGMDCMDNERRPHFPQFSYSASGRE
T20 sequence (Q9H2X6 whole entry): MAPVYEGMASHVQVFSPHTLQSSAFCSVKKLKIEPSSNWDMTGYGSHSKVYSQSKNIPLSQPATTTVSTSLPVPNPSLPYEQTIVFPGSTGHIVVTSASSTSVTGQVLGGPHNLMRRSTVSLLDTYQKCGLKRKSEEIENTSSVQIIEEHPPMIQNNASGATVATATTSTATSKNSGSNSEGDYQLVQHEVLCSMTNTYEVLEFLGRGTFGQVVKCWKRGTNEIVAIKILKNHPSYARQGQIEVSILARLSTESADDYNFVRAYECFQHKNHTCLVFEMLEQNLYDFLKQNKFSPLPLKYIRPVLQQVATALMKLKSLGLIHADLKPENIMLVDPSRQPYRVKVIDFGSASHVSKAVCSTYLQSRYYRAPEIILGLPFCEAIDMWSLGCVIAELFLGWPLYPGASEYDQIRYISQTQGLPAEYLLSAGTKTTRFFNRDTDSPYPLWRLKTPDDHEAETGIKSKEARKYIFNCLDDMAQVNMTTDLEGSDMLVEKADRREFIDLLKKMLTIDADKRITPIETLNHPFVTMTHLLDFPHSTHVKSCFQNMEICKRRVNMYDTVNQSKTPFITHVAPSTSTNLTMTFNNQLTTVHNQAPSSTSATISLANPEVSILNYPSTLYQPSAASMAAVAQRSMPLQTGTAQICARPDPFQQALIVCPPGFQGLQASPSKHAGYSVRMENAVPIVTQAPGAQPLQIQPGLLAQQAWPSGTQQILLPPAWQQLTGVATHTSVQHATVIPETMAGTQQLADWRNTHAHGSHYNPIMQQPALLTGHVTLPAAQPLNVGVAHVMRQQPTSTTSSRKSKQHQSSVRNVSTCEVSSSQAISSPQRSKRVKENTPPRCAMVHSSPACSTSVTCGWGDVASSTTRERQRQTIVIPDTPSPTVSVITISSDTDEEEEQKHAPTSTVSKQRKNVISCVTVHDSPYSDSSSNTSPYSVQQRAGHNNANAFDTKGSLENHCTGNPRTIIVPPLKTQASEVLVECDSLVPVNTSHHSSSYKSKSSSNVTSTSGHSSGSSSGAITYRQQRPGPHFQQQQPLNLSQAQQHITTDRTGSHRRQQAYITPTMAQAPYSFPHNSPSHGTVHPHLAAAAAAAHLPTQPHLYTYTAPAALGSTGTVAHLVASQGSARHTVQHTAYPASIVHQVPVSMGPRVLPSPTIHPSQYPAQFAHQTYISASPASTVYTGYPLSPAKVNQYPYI
T16 sequence (Q15349 whole entry): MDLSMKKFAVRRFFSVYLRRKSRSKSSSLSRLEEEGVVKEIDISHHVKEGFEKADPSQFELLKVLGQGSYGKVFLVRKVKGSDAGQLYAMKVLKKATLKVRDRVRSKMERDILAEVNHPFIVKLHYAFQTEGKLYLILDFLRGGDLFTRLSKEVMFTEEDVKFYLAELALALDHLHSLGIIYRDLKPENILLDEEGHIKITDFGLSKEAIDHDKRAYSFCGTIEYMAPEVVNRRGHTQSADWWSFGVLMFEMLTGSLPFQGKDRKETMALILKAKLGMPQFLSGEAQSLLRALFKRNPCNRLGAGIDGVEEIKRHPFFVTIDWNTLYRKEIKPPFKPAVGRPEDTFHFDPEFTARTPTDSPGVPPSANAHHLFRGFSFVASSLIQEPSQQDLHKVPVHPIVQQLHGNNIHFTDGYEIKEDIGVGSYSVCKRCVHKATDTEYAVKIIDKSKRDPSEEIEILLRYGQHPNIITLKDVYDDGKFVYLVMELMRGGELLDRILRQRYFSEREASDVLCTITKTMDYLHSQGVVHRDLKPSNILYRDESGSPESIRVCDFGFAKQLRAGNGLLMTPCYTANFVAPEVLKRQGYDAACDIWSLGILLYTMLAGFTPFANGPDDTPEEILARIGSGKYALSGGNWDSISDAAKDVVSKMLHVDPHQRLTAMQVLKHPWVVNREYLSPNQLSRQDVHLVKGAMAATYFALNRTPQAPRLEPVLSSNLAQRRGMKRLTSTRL

## Cc1c(-c2cnn(C)c2)nn(-c2ccccc2)c1NC(=O)Nc1sc(C(F)(F)F)nc1-c1ccccc1 [Example 2, 1-(1′,4-dimethyl-1-phenyl-1H,1′H-[3,4′-bipyrazol]-5-yl)-3-(4-phenyl-2-(trifluoromethyl)thiazol-5-yl)urea]
PDK1
  Avg POC: 115 POC
SRPK2
  Avg POC: 113.5 POC
MKK4_m
  Avg POC: 73.5 POC
PAK6
  Avg POC: 135 POC
CDK2/cyclinA
  Avg POC: 122 POC
FGFR2
  Avg POC: 116.5 POC
SGK1
  Avg POC: 139.5 POC
PDGFRbeta
  Avg POC: 162 POC
PKAC-alpha
  Avg POC: 134 POC
CAMK2b
  Avg POC: 102 POC
CAMK1
  Avg POC: 95.5 POC
CHK1
  Avg POC: 126.5 POC
MST1
  Avg POC: 100.5 POC
GSK3alpha
  Avg POC: 147.5 POC
AKT3
  Avg POC: 116 POC
Rsk3
  Avg POC: 99 POC
Yes
  Avg POC: 128.5 POC
IR Activated
  Avg POC: 113.5 POC
Fer
  Avg POC: 78.5 POC
HIPK2
  Avg POC: 98.5 POC
IRAK4
  Avg POC: 112 POC
CSK
  Avg POC: 136 POC
Rsk1
  Avg POC: 123.5 POC
SGK3
  Avg POC: 151 POC
EphA7
  Avg POC: 103 POC
PKCeta
  Avg POC: 103.5 POC
TrkB
  Avg POC: 3 POC
DCAMKL2
  Avg POC: 210.5 POC
IKKalpha
  Avg POC: 133 POC
TAO1
  Avg POC: 103.5 POC
PAK2
  Avg POC: 98.5 POC
MAPKAP-K3
  Avg POC: 116 POC
MINK
  Avg POC: 117.5 POC
BrSK1
  Avg POC: 132.5 POC
Syk
  Avg POC: 127.5 POC
p38gamma
  Avg POC: 105 POC
JNK3
  Avg POC: 120 POC
MAPKAP-K2
  Avg POC: 143.5 POC
BTK
  Avg POC: 123 POC
CK1_y
  Avg POC: 103 POC
MuSK
  Avg POC: 88 POC
